# Test results published in patent US12285524B2, “Sustained-release pharmaceutical compositions comprising an antipsychotic drug and uses thereof” (priority 2018, dated 2025).
# Experiment: in vivo
# Conditions: female, Sprague-Dawley, rat, sc, 10 mg/kg
# Description: The rats were housed in a holding room which operated on a 12-hr light/12-hr dark circadian cycle with free access to water and food.
# Plasma samples were obtained by centrifugation, kept frozen at −80° C. and analyzed using a noncompartmental analysis model in PKSolver (Comput Methods Programs Biomed. 2010; 99(3):306-314).
smiles,measurement,setting,value
"Cc1nc2n(c(=O)c1CCN1CCC(c3noc4cc(F)ccc34)CC1)CCCC2 [Risperidone, risperidone]",AUC(0-inf),,13.3 µg·h/mL
same,AUC(0-t),,13.2 µg·h/mL
same,Cmax,,4.51 µg/mL
same,"drug released, indicated by AUC0-t",8 h,100%
